Measurements as given in the supplement of paper PMC10307832.

Tests used:
Assay in all cases: relative viability (nuclei count vs DMSO), 5 days (fraction); higher = more cells survive
[1] = compound: CC1(C)CCC(CN2CCN(c3ccc(C(=O)NS(=O)(=O)c4ccc(NCC5CCOCC5)c([N+](=O)[O-])c4)c(Oc4cnc5[nH]ccc5c4)c3)CC2)=C(c2ccc(Cl)cc2)C1 [Venetoclax] + CCNC(=O)c1noc(-c2cc(C(C)C)c(O)cc2O)c1-c1ccc(CN2CCOCC2)cc1 [Luminespib] (partner 0.01 µM)
Method in brief: (§1)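 Nuclei were stained with Hoechst during a one-step fixation (final 0.05% Triton X-100, 1% formaldehyde, 1 ug/ml Hoechst) carried out 5 days after dosing, then counted on 4× images. The cells, lung cancer lines in 1536-well plates, had been dosed by pin tool the day after seeding with one drug alone or a fixed anchor-drug dose plus five library-drug doses (not always all listed) in √10 steps. Relative viability is the nuclei count in treated wells divided by that in vehicle wells, and each value is the median of duplicate plates.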

[2] = compound: CC1(C)CCC(CN2CCN(c3ccc(C(=O)NS(=O)(=O)c4ccc(NCC5CCOCC5)c([N+](=O)[O-])c4)c(Oc4cnc5[nH]ccc5c4)c3)CC2)=C(c2ccc(Cl)cc2)C1 [Venetoclax] + CS(=O)(=O)N1CCN(Cc2cc3nc(-c4cccc5[nH]ncc45)nc(N4CCOCC4)c3s2)CC1 [Pictilisib] (partner 1 µM)
Method in brief: as §1

[3] = compound: Cn1cnc2c(F)c(Nc3ccc(Br)cc3Cl)c(C(=O)NOCCO)cc21 [Selumetinib] + NC(=O)Nc1cc(-c2cccc(F)c2)sc1C(=O)N[C@H]1CCCNC1 [AZD7762] (partner 0.2 µM)
Method in brief: as §1

[4] = compound: Cn1cnc2c(F)c(Nc3ccc(Br)cc3Cl)c(C(=O)NOCCO)cc21 [Selumetinib] + COc1cccc2cc(-c3nc([C@H]4CC[C@H](C(=O)O)CC4)n4ncnc(N)c34)[nH]c12 [OSI-027] (partner 0.5 µM)
Method in brief: as §1

Cell Line	relative viability ([1]; first compound 0.01 µM)	relative viability ([1]; first compound 0.03162 µM)	relative viability ([1]; first compound 0.1 µM)	relative viability ([1]; first compound 0.3162 µM)	relative viability ([1]; first compound 1 µM)	relative viability ([2]; first compound 0.01 µM)	relative viability ([2]; first compound 0.03162 µM)	relative viability ([2]; first compound 0.1 µM)	relative viability ([2]; first compound 0.3162 µM)	relative viability ([2]; first compound 1 µM)	relative viability ([3]; first compound 0.02 µM)	relative viability ([3]; first compound 0.06325 µM)	relative viability ([3]; first compound 0.2 µM)	relative viability ([3]; first compound 0.6325 µM)	relative viability ([4]; first compound 0.02 µM)	relative viability ([4]; first compound 0.06325 µM)	relative viability ([4]; first compound 0.2 µM)	relative viability ([4]; first compound 0.6325 µM)
NCI-H2170	0.589	0.427	0.766	0.737	0.689	0.266	0.3	0.296	0.306	0.302	0.874	0.88	0.711	0.838	0.712	0.714	0.664	0.684
NCI-H2347	0.307	0.702	0.405	0.283	0.948	0.606	0.606	0.668	0.746	0.123	0.678	0.568	0.454	0.343	0.412	0.294	0.255	0.177
NCI-H2405	0.747	0.754	0.85	0.712	0.639	0.505	0.472		0.394	0.402	0.729	0.492	0.561	0.466	0.721	0.661	0.585	0.412
NCI-H3122	0.0697	0.0939	0.105	0.0864	0.101	0.797	0.619	0.576	0.568	0.683	0.886	0.808	0.785	0.552	0.709	0.512	0.417	0.291
PC-3 [JPC-3]	0.673	0.661	0.667	0.688	0.668	0.643	0.872	0.787	0.782	0.67	0.656	0.676	0.57	0.678	0.712	0.752	0.749	0.787
